Laboratory results as given in patent publication US12187759B2, “TLR7 agonists” (Primmune Therapeutics, Inc., priority 2019, dated 2025).

Tests used:
[1] = target: T1, human TLR7 (Homo sapiens, UniProt Q9NYK1); assay: TLR7 reporter cell assay (HEK293 cells stably expressing human TLR7 with NF-κB-driven SEAP reporter); type: cell-based; details: 15-24 hours; for Emax at 500 µM: HEK293, 500 μM compound, SEAP activity (OD 650 nm) relative to 28.5 μM resiquimod, read-out: Response at 500 μM Compound as a Percent of Resiquimod Response; for EC50: fit of SEAP dose response, ymax from 28.5 μM resiquimod
T1 construct: host or cells: HEK293
T1 sequence (Q9NYK1 27-1049): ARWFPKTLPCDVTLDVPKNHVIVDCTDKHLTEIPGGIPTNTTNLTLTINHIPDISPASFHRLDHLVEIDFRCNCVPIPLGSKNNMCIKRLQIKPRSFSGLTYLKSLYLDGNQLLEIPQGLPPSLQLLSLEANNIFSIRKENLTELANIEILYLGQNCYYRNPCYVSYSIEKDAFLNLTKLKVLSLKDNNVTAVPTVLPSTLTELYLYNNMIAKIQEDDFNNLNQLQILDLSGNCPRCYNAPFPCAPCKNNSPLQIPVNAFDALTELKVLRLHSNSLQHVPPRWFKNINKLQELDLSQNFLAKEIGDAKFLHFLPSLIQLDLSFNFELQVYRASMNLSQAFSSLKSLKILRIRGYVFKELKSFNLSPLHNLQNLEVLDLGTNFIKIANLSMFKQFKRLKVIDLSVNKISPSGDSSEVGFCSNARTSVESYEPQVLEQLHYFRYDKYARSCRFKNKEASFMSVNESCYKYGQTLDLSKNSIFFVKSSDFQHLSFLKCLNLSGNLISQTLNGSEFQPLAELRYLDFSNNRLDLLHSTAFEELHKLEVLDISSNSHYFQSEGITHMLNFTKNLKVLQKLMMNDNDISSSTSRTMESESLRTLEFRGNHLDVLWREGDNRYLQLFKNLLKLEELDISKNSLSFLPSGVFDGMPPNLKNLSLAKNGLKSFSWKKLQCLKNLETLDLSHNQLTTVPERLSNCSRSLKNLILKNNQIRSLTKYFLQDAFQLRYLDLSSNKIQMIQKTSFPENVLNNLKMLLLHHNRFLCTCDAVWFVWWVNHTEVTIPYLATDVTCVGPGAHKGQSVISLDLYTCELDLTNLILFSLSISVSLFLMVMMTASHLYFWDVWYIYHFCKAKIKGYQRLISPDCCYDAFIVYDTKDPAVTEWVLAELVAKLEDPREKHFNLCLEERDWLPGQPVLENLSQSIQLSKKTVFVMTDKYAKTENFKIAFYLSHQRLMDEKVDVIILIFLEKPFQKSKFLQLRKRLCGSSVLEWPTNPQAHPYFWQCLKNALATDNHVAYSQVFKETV
Outline: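 HEK293 cells stably expressing human TLR7 with an NF-κB-driven SEAP reporter, treated with compound for 15-24 hours. SEAP read at OD 650 nm. EC50 fitted by nonlinear least squares, maximum set by 28.5 μM resiquimod.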

[2] = test system: hPBMCs (Human Peripheral Blood Mononuclear Cells); assay: Induction of interferon-α in hPBMCs in vitro; type: cell-based; details: Homo sapiens, PBMC; for Emax: 24 h, peak IFNα2a as percentage of peak response of standard 2-Amino-7-(cyclopropylmethyl)-9-B-D-xylofuranosyl-7,9-dihydro-1H-purine-6,8-dione, averaged across donors, read-out: IFNrmax, Relative Maximal IFNα2a Production (%); for minimal effective concentration: minimal effective concentration for interferon-α production (generally at least 80 pg/ml above baseline), geometric mean across at least three donors, 24 hours, read-out: Weighted MEC
Outline: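 Peripheral blood mononuclear cells from healthy human donors were dispensed into replicate culture wells at 1.0-7.5×10^6 cells per well. They were exposed to test compound for 24 hours at 37° C. in humidified 5% CO2, with untreated wells as controls. Secreted interferon-α was quantified with a multisubtype ELISA or as IFNα2a in a luminex panel. MEC was defined as the lowest concentration giving a significant rise above baseline, generally at least 80 pg/ml. IFNmax was the highest IFN level seen at any tested concentration.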

| Compound | Emax at 500 µM [1] | EC50 [1] | Emax [2] | minimal effective concentration [2] |
| --- | --- | --- | --- | --- |
| C#CCn1c(=O)n([C@@H]2O[C@H]([C@@H](O)CSC)C[C@H]2O)c2nc(N)[nH]c(=O)c21 [Compound 45, 2-Amino-9-((2R,3R,5S)-3-hydroxy-5-((R)-1-hydroxy-2-(methylthio)ethyl)tetrahydrofuran-2-yl)-7-(prop-2-yn-1-yl)-7,9-dihydro-1H-purine-6,8-dione] | 66% | 185 µM | 321% | 5 µM |
| CC[C@H](O)[C@H]1O[C@@H](n2c(=O)n(CC3CC3)c3c(=O)[nH]c(N)nc32)[C@H](O)[C@H]1F [Compound 17, 2-Amino-7-(cyclopropylmethyl)-9-((2R,3S,4R,5R)-4-fluoro-3-hydroxy-5-((S)-1-hydroxypropyl)tetrahydrofuran-2-yl)-7,9-dihydro-1H-purine-6,8-dione] | 58% | 358 µM | 185% | ≤ 3.1 µM |
| CCCn1c(=O)n([C@@H]2O[C@H]([C@@H](O)CC)[C@H](F)[C@H]2O)c2nc(N)[nH]c(=O)c21 [Compound 26, 2-Amino-9-((2R,3S,4R,5R)-4-fluoro-3-hydroxy-5-((S)-1-hydroxypropyl)tetrahydrofuran-2-yl)-7-propyl-7,9-dihydro-1H-purine-6,8-dione] | 59% | 269 µM | 304% | ≤ 1.6 µM |
| Nc1nc2c(c(=O)[nH]1)n(CC1CC1)c(=O)n2[C@@H]1O[C@H]([C@@H](O)C(F)(F)F)C[C@H]1O [Compound 29, 2-Amino-7-(cyclopropylmethyl)-9-((2R,3R,5S)-3-hydroxy-5-((R)-2,2,2-trifluoro-1-hydroxyethyl)tetrahydrofuran-2-yl)-7,9-dihydro-1H-purine-6,8-dione] | 79% | 201 µM | 83% | 6.3 µM |

Continued, in another order:

| Emax at 500 µM [1] | EC50 [1] | Compound | Emax [2] | minimal effective concentration [2] |
| --- | --- | --- | --- | --- |
| < 5% | – | C#CCn1c(=O)n([C@@H]2O[C@H]([C@@H](O)CN)C[C@H]2O)c2nc(N)[nH]c(=O)c21 [Compound 15, 2-Amino-9-((2R,3R,5S)-5-((S)-2-amino-1-hydroxyethyl)-3-hydroxytetrahydrofuran-2-yl)-7-(prop-2-yn-1-yl)-7,9-dihydro-1H-purine-6,8-dione] | ≤ 10% | > 50 µM |
| < 5% | – | C#CCn1c(=O)n([C@@H]2O[C@H]([C@@H](O)CNC)C[C@H]2O)c2nc(N)[nH]c(=O)c21 [Compound 16, 2-Amino-9-((2R,3R,5S)-3-hydroxy-5-((S)-1-hydroxy-2-(methylamino)ethyl)tetrahydrofuran-2-yl)-7-(prop-2-yn-1-yl)-7,9-dihydro-1H-purine-6,8-dione] | ≤ 10% | > 50 µM |
| < 5% | – | C#CCn1c(=O)n([C@@H]2O[C@H]([C@H](O)CF)C[C@H]2O)c2nc(N)[nH]c(=O)c21 [Compound 23, 2-Amino-9-((2R,3R,5S)-5-((S)-2-fluoro-1-hydroxyethyl)-3-hydroxytetrahydrofuran-2-yl)-7-(prop-2-yn-1-yl)-7,9-dihydro-1H-purine-6,8-dione] | ≤ 10% | > 50 µM |
